Test [1] has as its target Acetylcholinesterase (Torpedo californica, UniProt P04058). Nature of the test: Inhibition of Torpedo californica AChE using acetylthiocholine chloride as substrate peincubated for 15 mins followed by substrate addition measured after 5 mins by Ellman's method. Further details: species or system Tetronarce californica. A general note: Ellman's reagent forms a yellow product with free thiols.

In test [2] the target is T1, Acetylcholinesterase (Electrophorus electricus, UniProt O42275).
T1 sequence (O42275 whole entry): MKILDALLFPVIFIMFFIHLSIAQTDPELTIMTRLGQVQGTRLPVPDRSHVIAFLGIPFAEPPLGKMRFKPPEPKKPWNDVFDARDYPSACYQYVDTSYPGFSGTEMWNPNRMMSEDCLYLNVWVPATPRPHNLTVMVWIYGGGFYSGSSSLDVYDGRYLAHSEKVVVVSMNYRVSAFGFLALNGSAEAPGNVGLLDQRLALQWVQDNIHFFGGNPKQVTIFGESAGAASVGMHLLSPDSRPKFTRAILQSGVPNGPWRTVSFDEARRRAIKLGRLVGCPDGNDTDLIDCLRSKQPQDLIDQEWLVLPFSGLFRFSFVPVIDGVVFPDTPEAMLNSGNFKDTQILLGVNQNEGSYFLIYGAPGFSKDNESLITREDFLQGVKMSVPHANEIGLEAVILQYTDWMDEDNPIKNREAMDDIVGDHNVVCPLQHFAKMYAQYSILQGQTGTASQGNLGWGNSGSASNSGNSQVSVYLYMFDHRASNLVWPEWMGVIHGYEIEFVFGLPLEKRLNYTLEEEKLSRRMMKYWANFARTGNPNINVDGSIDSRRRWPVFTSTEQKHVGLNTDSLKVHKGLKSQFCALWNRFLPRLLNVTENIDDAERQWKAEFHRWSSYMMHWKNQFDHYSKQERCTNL
Description: Inhibition of electric eel AChE using acetylthiocholine chloride as substrate peincubated for 15 mins followed by substrate addition measured at 1 min interval by Ellman's method
Test [3] concerns the target T2, Cholinesterase (Equus caballus, UniProt P81908). In words: Inhibition of equine serum BuChE using butylthiocholine chloride as substrate peincubated for 15 mins followed by substrate addition measured at 1 min interval by Ellman's method.
Test [4] deals with T1, Acetylcholinesterase. This is another data set of the same source.
Description: (§1) Inhibition of electric eel AChE by Ellman's method
In test [5] the target is Amyloid-beta precursor protein (Homo sapiens) (UniProt P05067). Nature of the test: Inhibition of self-induced amyloid beta (1 to 42) (unknown origin) aggregation at 100 uM after 24 hrs by ThT fluorescence assay relative to control.
Sequence of Amyloid-beta precursor protein (Homo sapiens) (P05067 whole entry): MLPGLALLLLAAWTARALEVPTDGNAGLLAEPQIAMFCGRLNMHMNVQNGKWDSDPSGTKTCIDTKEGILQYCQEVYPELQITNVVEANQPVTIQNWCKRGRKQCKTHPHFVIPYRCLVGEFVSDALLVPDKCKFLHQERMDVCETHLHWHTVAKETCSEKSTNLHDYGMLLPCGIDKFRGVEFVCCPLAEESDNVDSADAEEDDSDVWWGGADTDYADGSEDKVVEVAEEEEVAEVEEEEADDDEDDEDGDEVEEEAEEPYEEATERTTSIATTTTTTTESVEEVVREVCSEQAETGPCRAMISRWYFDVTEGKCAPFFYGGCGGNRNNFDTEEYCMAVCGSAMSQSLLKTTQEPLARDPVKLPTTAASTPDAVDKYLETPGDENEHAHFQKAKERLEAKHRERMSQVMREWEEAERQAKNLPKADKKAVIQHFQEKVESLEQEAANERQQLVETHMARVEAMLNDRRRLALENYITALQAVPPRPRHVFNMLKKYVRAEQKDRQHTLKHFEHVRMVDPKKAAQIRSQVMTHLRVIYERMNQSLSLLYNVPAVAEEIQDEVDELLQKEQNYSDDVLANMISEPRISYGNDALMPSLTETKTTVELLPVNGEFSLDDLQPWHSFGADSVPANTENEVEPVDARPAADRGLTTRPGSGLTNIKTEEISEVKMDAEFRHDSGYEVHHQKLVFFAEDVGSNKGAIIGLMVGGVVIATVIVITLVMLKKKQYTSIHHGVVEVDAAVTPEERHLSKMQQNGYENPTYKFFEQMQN
For test [6] the target is unchanged. In words: Inhibition of self-induced amyloid beta (1 to 42) (unknown origin) aggregation at 100 uM after 24 hrs in presence of copper by ThT fluorescence assay relative to control.
The target in test [7] is T2, Cholinesterase. Nature of the test: Inhibition of equine serum BuChE by Ellman's method.
The target of test [8] is T1, Acetylcholinesterase. This is another data set of the same source.
Description: as §1
For test [9], the target named is Cholinesterase (Homo sapiens) (UniProt P06276). As to conditions: 0.6 mg/kg.
Sequence of Cholinesterase (Homo sapiens) (P06276 whole entry): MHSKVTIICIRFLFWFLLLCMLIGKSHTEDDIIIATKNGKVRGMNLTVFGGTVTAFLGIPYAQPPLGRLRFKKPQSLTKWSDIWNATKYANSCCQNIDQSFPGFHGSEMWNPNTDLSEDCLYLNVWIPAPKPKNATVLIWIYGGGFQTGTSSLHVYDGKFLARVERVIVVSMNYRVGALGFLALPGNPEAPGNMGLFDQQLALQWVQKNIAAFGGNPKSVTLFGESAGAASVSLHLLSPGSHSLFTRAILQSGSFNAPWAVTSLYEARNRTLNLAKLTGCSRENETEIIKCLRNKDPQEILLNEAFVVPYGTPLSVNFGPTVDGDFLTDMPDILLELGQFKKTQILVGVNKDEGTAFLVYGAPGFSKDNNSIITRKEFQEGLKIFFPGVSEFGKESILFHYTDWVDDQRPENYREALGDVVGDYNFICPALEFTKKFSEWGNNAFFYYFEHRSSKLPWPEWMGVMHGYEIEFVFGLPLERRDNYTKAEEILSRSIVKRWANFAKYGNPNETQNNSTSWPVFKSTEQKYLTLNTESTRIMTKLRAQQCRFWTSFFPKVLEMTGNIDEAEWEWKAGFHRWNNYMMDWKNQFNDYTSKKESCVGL
Test [10] concerns the target T3, Acetylcholinesterase (Homo sapiens, UniProt P22303). As to conditions: 0.6 mg/kg.
Test [11] has as its target T3, Acetylcholinesterase. Nature of the test: Inhibition of human AChE using acetylthiocholine chloride as substrate peincubated for 15 mins followed by substrate addition measured at 1 min interval by Ellman's method.
In test [12] the target is T4, Amine oxidase [flavin-containing] A (Rattus norvegicus, UniProt P21396).
T4 sequence (P21396 whole entry): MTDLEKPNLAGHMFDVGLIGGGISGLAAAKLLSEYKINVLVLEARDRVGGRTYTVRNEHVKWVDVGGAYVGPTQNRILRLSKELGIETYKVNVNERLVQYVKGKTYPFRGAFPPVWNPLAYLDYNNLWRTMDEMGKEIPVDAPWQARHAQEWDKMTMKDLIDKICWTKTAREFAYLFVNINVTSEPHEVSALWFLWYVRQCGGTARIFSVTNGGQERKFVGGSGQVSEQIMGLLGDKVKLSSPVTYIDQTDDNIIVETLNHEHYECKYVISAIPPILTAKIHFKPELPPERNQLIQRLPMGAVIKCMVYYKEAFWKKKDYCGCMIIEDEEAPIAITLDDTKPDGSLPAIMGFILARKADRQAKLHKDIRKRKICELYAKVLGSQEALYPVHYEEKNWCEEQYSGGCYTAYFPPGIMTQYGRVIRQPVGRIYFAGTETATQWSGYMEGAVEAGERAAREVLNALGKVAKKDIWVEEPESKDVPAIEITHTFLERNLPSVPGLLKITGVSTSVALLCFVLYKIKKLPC
In words: In-vivo inhibition of MAO A in rat brain at 26 mg/kg, po relative to control. It counts as functional, organism-based.

Test [13] addresses T5, Amine oxidase [flavin-containing] B (Rattus norvegicus, UniProt P19643).
T5 sequence (P19643 whole entry): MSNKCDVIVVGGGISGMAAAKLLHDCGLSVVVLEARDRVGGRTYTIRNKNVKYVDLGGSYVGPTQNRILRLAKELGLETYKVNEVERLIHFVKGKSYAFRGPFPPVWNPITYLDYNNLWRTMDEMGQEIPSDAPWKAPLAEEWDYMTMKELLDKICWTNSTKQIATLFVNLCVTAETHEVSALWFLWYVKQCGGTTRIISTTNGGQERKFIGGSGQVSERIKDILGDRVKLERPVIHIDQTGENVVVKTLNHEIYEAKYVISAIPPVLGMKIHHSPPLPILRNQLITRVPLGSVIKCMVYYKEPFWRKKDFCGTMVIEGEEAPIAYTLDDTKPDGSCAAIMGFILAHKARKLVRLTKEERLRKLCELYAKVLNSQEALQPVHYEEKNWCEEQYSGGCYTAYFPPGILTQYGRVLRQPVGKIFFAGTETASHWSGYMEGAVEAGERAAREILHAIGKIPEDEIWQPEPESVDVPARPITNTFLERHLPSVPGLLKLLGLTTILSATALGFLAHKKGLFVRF
Nature of the test: In-vivo inhibition of MAO B in rat brain at 26 mg/kg, po relative to control. It counts as functional, organism-based.

The target in test [14] is T6, Amine oxidase [flavin-containing] B (Homo sapiens, UniProt P27338).
T6 sequence (P27338 whole entry): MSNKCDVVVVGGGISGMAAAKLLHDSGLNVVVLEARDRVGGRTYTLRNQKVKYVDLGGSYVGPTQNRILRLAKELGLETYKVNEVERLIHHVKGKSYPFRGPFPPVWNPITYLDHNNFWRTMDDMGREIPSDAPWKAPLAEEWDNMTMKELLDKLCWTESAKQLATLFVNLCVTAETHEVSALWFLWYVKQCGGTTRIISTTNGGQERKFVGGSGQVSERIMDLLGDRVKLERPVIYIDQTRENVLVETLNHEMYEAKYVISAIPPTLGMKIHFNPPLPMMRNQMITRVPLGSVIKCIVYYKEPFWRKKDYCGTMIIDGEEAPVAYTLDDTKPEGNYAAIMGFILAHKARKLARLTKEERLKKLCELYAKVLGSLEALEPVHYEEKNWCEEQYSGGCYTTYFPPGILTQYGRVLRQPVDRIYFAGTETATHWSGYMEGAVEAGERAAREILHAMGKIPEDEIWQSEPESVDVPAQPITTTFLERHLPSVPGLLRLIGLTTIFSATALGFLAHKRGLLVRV
In words: Inhibition of human MAO B.

The target in test [15] is T7, Amine oxidase [flavin-containing] A (Homo sapiens, UniProt P21397).
T7 sequence (P21397 whole entry): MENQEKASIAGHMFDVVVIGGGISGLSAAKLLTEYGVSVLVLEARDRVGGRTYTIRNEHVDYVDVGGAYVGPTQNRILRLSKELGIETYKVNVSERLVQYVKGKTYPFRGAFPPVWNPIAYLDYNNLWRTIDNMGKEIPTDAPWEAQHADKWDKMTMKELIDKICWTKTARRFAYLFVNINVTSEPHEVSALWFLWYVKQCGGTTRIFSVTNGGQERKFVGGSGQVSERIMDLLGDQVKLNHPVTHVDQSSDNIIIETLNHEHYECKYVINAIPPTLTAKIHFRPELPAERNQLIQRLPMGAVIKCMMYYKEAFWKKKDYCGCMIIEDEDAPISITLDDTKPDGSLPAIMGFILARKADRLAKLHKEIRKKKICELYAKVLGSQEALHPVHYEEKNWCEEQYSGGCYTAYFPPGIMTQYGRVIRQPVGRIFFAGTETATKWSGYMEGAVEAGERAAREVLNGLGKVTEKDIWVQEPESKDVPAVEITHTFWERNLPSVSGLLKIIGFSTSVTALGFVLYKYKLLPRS
In words: Inhibition of human MAO A.

Sequence of Acetylcholinesterase (Torpedo californica, UniProt P04058) (P04058 whole entry): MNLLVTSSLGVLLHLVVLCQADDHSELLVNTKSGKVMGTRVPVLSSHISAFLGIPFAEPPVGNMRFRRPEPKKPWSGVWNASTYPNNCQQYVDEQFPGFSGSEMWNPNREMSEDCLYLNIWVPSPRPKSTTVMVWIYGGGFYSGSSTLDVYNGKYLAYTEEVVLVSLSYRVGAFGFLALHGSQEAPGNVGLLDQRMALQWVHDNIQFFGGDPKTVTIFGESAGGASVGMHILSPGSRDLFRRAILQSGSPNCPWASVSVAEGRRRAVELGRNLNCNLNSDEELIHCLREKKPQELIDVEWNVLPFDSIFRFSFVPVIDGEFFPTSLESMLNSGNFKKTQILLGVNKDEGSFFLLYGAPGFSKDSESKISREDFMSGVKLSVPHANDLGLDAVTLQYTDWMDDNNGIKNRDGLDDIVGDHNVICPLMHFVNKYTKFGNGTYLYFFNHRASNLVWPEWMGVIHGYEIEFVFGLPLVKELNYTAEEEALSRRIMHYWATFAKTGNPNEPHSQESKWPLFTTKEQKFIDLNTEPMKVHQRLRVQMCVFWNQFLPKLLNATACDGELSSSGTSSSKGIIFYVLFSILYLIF
T3 sequence (P22303 whole entry): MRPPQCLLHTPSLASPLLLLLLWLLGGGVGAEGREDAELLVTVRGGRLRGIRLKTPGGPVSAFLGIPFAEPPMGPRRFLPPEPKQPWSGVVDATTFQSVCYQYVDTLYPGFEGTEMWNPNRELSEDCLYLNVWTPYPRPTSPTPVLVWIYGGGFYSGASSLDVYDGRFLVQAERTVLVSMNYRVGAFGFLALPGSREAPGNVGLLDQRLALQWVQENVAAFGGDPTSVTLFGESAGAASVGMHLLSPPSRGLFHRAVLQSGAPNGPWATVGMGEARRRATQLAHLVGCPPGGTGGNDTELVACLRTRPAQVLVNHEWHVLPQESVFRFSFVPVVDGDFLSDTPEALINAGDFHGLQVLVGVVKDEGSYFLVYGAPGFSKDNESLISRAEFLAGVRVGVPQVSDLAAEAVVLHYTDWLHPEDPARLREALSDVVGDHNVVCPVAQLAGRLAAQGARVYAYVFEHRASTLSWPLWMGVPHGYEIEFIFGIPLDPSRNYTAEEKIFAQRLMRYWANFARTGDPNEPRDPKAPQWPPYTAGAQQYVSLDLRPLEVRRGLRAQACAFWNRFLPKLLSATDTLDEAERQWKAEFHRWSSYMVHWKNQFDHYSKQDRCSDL
T2 sequence (P81908 whole entry): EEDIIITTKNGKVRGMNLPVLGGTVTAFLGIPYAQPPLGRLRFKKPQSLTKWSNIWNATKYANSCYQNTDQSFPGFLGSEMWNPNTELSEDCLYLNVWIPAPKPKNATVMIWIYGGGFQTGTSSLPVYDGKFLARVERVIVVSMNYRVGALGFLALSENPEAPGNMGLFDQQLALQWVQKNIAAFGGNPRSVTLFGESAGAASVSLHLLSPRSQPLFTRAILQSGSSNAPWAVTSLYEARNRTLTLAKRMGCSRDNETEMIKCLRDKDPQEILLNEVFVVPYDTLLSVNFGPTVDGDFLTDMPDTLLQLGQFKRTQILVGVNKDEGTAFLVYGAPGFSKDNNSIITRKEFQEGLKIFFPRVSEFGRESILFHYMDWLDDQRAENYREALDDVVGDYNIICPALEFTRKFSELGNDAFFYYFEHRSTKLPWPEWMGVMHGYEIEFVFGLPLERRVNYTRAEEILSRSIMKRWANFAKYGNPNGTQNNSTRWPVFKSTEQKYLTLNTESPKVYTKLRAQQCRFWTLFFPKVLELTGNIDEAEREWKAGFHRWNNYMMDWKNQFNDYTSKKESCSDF

What is called IC50 is the point on the concentration scale where inhibition reaches its midpoint. As for `C=CCSC[C@@H](N)C(=O)NCCCNc1c2c(nc3ccccc13)CCCC2`, at Acetylcholinesterase [1], the IC50 was 880 nM.

On to `C#CCN(CC#C)c1c2c(nc3cc(Cl)ccc13)CCCC2`, for which the IC50 came out at 884 nM at Acetylcholinesterase [2] and 5380 nM against Cholinesterase [3].

With `C#CCN(C)Cc1cc2ccccc2oc1=O`, the IC50 at Acetylcholinesterase [4] was in the range of 2780 to 14400 nM.

In turn, `Nc1c2c(nc3cc(Cl)ccc13)CCCC2` displayed a 50% inhibitory concentration (IC50) at Acetylcholinesterase [2] of 23.5 nM.

With `C#CCNCCNc1c2c(nc3ccccc13)CCCC2`, on Acetylcholinesterase [2], the IC50 turned out to be 226 nM.

In general, inhibition refers to the relative decrease from the control value, in per cent. Consider `C#CCSCC(NC(=O)CCCNc1c2c(nc3ccccc13)CCCC2)C(=O)Nc1nc2ccccc2s1` (stereo unspecified), for which, on Acetylcholinesterase [1], the IC50 is 250 to 280 nM. The same compound gave an inhibition in test [5] of 77.2%.

In turn, `C#CCSC[C@@H](N)C(=O)NCCCCNc1c2c(nc3ccccc13)CCCC2` yielded an IC50 on Acetylcholinesterase [1] of 1210 nM.

Regarding `C#CCSCC(NC(=O)CCCCCNc1c2c(nc3cc(Cl)ccc13)CCCC2)C(=O)Nc1nc2ccccc2s1` (stereo unspecified), the half-inhibitory concentration (IC50) against Acetylcholinesterase [1] is 250 to 280 nM.

On Acetylcholinesterase [1], `C=CCSCC(NC(=O)CCCCCNc1c2c(nc3ccccc13)CCCC2)C(=O)Nc1nc2ccccc2s1` (stereo unspecified) returned an IC50 of 250 to 280 nM. Besides, in test [5], the inhibition worked out at 78.2%.

As to `C#CCSCC(NC(=O)CCCCCNc1c2c(nc3ccccc13)CCCC2)C(=O)Nc1nc2ccccc2s1` (stereo unspecified), at Acetylcholinesterase [1], the IC50 lay within 250 to 280 nM.

With `C=CCSC[C@@H](N)C(=O)NCCCNc1c2c(nc3cc(Cl)ccc13)CCCC2`, the IC50 on Acetylcholinesterase [1] came out at 300 nM.

The compound `C#CCSCC(NC(=O)CCCNc1c2c(nc3cc(Cl)ccc13)CCCC2)C(=O)Nc1nc2ccccc2s1` (stereo unspecified) had an IC50 on Acetylcholinesterase [1] of 250 nM. The inhibition in [6] stood at 37.6%; in test [5], 24.1%.

For `C#CCN(CC#C)CCNc1c2c(nc3ccccc13)CCCC2`, the IC50 at Acetylcholinesterase [2] came to 339 nM; against Cholinesterase [3], 353 nM.

Consider `C#CCN(C)c1nc(NCCCCC2CCN(Cc3ccccc3)CC2)c(C#N)cc1C#N`, for which the half-maximal inhibitory concentration (IC50) against Cholinesterase [7] is 600 nM; on Acetylcholinesterase [8] it was 1.1 nM.

With `CCN(C)C(=O)Oc1cccc([C@H](C)N(C)C)c1`, the inhibition in [9] came to 25%; against Acetylcholinesterase [10], 40%.

Turning to `C#CCNc1c2c(nc3cc(Cl)ccc13)CCCC2`, the figures for the IC50 against Acetylcholinesterase [2], at Cholinesterase [3] and on Acetylcholinesterase [11] were 11.2 nM, 83.5 nM and 9.4 nM, respectively.

`C#CCNc1c2c(nc3ccccc13)CCCC2`: the IC50 against Acetylcholinesterase [2] is 51.3 to 106 nM; against Cholinesterase [3] it was 77.6 nM; against Acetylcholinesterase [11] it was 50.7 nM.

In the case of `C=CCSCC(NC(=O)CCCNc1c2c(nc3ccccc13)CCCC2)C(=O)Nc1nc2ccccc2s1` (stereo unspecified), the IC50 at Acetylcholinesterase [1] lay within 250 to 280 nM.

As to `C#CCN[C@@H]1CCc2ccc(OC(=O)N(C)CC)cc21` [LADOSTIGIL], the inhibition at 26 mg/kg in [12] and in [13] was 70% throughout.

The compound `C=CCSCC(NC(=O)CCCCCNc1c2c(nc3cc(Cl)ccc13)CCCC2)C(=O)Nc1nc2ccccc2s1` (stereo unspecified) showed a half-inhibitory concentration (IC50) against Acetylcholinesterase [1] of 280 nM.

Turning to `C#CCN(C)Cc1cc2cc(OC)c(O)cc2oc1=O`, at Acetylcholinesterase [4], the IC50 was 2780 to 14400 nM.

The compound `C=CCSCC(NC(=O)CCCNc1c2c(nc3cc(Cl)ccc13)CCCC2)C(=O)Nc1nc2ccccc2s1` (stereo unspecified) displayed an IC50 against Acetylcholinesterase [1] of 250 to 280 nM. For the same compound, the inhibition in test [6] is 56.6%; in test [5], 31.6%.

As for `C#CCSC[C@@H](N)C(=O)NCCCNc1c2c(nc3cc(Cl)ccc13)CCCC2`, half-maximal inhibition against Acetylcholinesterase [1] (IC50) required 560 nM.

`C#CCN(C)Cc1cc2ccc(OC)cc2oc1=O` gave an IC50 at Acetylcholinesterase [4] of 2780 to 14400 nM.

`C#CCN(C)Cc1cc2cc(OCCCC3CCN(Cc4ccccc4)CC3)ccc2n1C`: the IC50 in test [14] amounted to 177 nM; in test [15], 5.44 nM.
